Molecules are shown by their SMILES.

For one data set, the target named is CYP2B6 (Homo sapiens, UniProt P20813). Put plainly: Inhibition of CYP2B6 in human liver microsomes using bupropion as substrate at 100 uM preincubated for 20 mins with substrate prior to initiation of reaction with NADPH by HPLC analysis. The format is ADME. The following applies: probe bupropion.
Data set [1] deals with ATP-binding cassette sub-family C member 2 (Homo sapiens, UniProt Q92887). Put plainly: Inhibition of human MRP2 expressed in baculovirus-infected Sf9 cell membrane vesicle using [3H]estradiol 17beta-D-glucuronide as substrate preincubated with vesicles for 5 mins prior to substrate addition by liquid scintillation counting analysis.
The target in another data set is MDR1 (P-gp, ABCB1) (Homo sapiens, UniProt P08183). Put plainly: Activity at human MDR1 expressed in MDCK2 cells assessed as apical to basolateral mass balance at 3 uM by liquid scintillation counting analysis. The following applies: MDCK-MDR1, read-out: Activity. Format: ADME, cell-based, MDCK-II.
A further data set concerns the target T1, BCRP (ABCG2) (Homo sapiens, UniProt Q9UNQ0).
T1 sequence (Q9UNQ0 whole entry): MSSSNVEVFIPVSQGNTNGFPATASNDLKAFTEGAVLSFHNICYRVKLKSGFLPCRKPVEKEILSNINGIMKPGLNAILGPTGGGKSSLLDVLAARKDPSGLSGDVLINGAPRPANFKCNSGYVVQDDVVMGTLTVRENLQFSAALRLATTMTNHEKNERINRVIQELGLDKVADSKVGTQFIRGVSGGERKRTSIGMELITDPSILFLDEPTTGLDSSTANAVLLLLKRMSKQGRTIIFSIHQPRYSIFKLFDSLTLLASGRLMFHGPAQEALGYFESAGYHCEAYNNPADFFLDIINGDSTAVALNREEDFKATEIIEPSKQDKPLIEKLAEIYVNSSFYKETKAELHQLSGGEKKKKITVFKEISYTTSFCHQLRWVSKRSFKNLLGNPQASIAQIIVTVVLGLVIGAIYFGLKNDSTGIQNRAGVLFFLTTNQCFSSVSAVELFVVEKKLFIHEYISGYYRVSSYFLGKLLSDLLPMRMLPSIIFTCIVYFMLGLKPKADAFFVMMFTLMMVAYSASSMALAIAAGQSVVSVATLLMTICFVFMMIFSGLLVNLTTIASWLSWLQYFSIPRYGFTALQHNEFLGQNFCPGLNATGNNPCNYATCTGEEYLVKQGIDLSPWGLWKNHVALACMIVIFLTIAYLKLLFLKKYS
The data set can be described thus: Activity at human BCRP expressed in MDCK2 cells assessed as apical to basolateral mass balance at 3 uM by liquid scintillation counting analysis in presence of 3 uM P-gp and BCRP inhibitor GF120918. Format: ADME, cell-based, MDCK-II. The following applies: with GF120918 (P-gp and BCRP inhibitor), read-out: Activity.

Data set [2] has as its target ATP-dependent translocase ABCB1 (Homo sapiens, UniProt P08183). Put plainly: Inhibition of MDR1 (unknown origin) expressed in MDCK2 cells assessed as basolateral to apical transport of [3H]digoxin at 100 uM after 90 mins by liquid scintillation counting analysis. Format: ADME, cell-based. The following applies: mdck-ii, 1.5 h.
Another data set addresses Cytochrome P450 3A4 (Homo sapiens, UniProt P08684). The data set can be described thus: Drug metabolism in supersomes expressing human recombinant CYP3A4 assessed as NADPH-fortified enzyme-mediated metabolite M3 ((4R,12aS)-N-((3,5-difluorophenyl)(hydroxy)methyl)-7-hydroxy-4-methyl-6,8-dioxo-3,4,6,8,12,12a-hexahydro-2H-[1,3]oxazino[3,2-d]pyrido[1,2-a]pyrazine-9-carboxamide) formation at 5 uM after 120 mins by radio-HPLC analysis in presence of selective CYP3A4 inhibitor azamulin. Format: ADME.

Another data set deals with Liver microsome. The data set can be described thus: Drug metabolism in NADPH-fortified human liver microsomes assessed as metabolite M3 ((4R,12aS)-N-((3,5-difluorophenyl)(hydroxy)methyl)-7-hydroxy-4-methyl-6,8-dioxo-3,4,6,8,12,12a-hexahydro-2H-[1,3]oxazino[3,2-d]pyrido[1,2-a]pyrazine-9-carboxamide) formation at 5 uM after 120 mins by radio-HPLC analysis. The format is ADME. Background: Liver microsomes are a subcellular fraction often used to study metabolism.

The target in a further data set is T2, Cytochrome P450 1A2 (Homo sapiens, UniProt P05177).
T2 sequence (P05177 whole entry): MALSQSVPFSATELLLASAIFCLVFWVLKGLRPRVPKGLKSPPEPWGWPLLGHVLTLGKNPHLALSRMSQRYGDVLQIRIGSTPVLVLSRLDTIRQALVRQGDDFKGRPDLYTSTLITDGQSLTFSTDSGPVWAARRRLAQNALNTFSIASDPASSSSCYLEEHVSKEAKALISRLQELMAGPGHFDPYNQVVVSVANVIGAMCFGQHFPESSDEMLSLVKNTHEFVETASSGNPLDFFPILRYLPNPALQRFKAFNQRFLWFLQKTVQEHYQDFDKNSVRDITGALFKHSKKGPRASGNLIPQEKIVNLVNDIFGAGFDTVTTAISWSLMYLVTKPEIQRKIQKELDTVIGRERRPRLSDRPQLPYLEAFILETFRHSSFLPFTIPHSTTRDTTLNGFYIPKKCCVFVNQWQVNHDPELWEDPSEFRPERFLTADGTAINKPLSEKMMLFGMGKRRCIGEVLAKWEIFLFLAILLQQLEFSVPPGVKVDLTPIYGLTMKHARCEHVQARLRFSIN
The data set can be described thus: Inhibition of CYP1A2 in human liver microsomes using phenacetin as substrate preincubated for 20 mins with substrate prior to initiation of reaction with NADPH by HPLC analysis. The format is ADME.

Data set [3] deals with UDP-glucuronosyltransferase 2B15 (Homo sapiens, UniProt P54855). The data set can be described thus: Drug metabolism assessed as UDPGA-fortified human recombinant UGT2B15-mediated DTG glucuronide metabolite ((2S,3S,4S,5R,6S)-6-((4R,12aS)-9-(2,4-difluorobenzylcarbamoyl)-4-methyl-6,8-dioxo-3,4,6,8,12,12a-hexahydro-2H-[1,3]oxazino[3,2-d]pyrido[1,2-a]pyrazin-7-yloxy)-3,4,5-trihydroxytetrahydro-2H-pyran-2-carboxylic acid) formation at 16 uM after 120 mins by radio-HPLC analysis. The format is ADME. The following applies: recombinant enzyme.

For data set [4], the target named is UDP-glucuronosyltransferase 1A6 (Homo sapiens, UniProt P19224). The data set can be described thus: Drug metabolism assessed as UDPGA-fortified human recombinant UGT1A6-mediated DTG glucuronide metabolite ((2S,3S,4S,5R,6S)-6-((4R,12aS)-9-(2,4-difluorobenzylcarbamoyl)-4-methyl-6,8-dioxo-3,4,6,8,12,12a-hexahydro-2H-[1,3]oxazino[3,2-d]pyrido[1,2-a]pyrazin-7-yloxy)-3,4,5-trihydroxytetrahydro-2H-pyran-2-carboxylic acid) formation at 16 uM after 120 mins by radio-HPLC analysis. The format is ADME. The following applies: recombinant enzyme.
UDP-glucuronosyltransferase 1A6, sequence (P19224 whole entry): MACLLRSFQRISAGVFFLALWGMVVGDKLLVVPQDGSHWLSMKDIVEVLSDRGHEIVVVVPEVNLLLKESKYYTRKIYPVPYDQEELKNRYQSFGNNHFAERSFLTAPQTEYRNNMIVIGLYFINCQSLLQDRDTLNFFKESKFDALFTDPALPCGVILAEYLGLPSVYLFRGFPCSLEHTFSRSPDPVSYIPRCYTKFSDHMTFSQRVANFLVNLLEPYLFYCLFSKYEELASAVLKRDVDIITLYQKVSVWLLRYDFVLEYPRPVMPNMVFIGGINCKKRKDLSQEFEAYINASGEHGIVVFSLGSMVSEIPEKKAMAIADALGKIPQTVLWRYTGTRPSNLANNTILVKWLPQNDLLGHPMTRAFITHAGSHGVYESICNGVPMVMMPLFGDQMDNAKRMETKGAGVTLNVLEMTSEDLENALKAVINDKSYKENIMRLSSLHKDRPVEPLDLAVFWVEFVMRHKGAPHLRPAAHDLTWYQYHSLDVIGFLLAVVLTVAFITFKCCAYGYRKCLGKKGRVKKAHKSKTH

ATP-dependent translocase ABCB1, sequence (P08183 whole entry): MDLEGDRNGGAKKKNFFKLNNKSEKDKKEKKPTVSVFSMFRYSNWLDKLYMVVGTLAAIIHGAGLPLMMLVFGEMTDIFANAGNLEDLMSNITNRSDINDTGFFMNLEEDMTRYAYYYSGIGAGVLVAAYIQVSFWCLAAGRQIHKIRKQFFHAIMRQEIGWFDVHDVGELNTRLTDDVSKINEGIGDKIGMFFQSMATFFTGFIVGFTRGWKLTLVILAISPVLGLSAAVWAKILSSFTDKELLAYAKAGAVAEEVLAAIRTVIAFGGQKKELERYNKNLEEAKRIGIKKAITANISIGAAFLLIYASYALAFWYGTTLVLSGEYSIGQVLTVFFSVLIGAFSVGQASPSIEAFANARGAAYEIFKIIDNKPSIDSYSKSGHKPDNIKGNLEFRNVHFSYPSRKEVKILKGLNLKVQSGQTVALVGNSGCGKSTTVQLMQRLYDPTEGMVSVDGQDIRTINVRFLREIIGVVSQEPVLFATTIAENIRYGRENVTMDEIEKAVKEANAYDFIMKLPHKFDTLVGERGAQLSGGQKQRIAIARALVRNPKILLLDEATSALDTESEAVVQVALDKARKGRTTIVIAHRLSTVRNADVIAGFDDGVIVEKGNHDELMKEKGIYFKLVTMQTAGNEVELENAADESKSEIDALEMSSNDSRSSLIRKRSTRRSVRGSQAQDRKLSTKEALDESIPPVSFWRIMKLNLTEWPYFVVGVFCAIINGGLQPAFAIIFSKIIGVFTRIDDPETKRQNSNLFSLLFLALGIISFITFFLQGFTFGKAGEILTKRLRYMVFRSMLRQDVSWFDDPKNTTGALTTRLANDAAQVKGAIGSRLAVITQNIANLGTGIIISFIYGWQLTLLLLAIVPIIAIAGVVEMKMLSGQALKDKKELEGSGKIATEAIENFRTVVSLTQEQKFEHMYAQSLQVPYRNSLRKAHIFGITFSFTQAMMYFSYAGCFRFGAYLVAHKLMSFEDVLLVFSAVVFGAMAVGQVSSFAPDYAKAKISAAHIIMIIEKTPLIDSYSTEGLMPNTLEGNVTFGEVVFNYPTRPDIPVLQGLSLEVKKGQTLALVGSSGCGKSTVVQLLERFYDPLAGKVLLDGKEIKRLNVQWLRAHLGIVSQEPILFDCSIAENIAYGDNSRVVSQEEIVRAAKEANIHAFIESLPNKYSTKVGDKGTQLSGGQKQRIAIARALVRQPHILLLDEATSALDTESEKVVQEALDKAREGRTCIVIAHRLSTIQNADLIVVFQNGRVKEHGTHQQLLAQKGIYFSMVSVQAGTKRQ
MDR1 (P-gp, ABCB1), sequence (P08183 whole entry): as above
Cytochrome P450 3A4, sequence (P08684 whole entry): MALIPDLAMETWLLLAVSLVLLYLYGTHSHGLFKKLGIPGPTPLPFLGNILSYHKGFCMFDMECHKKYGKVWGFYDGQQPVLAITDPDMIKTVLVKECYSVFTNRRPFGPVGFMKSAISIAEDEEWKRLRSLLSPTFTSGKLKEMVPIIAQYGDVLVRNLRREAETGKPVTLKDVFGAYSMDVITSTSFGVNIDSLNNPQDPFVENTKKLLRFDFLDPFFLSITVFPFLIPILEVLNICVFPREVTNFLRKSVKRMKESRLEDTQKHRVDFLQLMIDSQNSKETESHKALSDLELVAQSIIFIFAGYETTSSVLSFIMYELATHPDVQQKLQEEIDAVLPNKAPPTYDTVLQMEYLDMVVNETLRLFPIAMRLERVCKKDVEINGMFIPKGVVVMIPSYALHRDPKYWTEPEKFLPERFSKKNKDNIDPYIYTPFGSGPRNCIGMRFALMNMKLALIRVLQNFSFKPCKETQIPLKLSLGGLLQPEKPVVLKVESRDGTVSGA
UDP-glucuronosyltransferase 2B15, sequence (P54855 whole entry): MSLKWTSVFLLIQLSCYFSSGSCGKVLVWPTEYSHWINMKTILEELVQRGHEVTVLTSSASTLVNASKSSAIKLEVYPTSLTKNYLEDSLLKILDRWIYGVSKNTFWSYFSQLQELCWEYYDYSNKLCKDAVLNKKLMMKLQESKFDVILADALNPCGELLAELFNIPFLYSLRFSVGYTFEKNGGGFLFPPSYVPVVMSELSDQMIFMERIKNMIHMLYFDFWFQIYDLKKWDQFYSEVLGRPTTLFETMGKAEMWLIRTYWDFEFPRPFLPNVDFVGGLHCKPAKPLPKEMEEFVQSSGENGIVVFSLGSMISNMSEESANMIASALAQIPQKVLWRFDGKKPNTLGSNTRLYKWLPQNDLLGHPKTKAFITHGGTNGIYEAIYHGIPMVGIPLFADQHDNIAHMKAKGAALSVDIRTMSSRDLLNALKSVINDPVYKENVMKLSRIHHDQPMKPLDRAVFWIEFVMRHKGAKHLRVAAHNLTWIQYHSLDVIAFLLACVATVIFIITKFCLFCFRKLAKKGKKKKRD
CYP2B6, sequence (P20813 whole entry): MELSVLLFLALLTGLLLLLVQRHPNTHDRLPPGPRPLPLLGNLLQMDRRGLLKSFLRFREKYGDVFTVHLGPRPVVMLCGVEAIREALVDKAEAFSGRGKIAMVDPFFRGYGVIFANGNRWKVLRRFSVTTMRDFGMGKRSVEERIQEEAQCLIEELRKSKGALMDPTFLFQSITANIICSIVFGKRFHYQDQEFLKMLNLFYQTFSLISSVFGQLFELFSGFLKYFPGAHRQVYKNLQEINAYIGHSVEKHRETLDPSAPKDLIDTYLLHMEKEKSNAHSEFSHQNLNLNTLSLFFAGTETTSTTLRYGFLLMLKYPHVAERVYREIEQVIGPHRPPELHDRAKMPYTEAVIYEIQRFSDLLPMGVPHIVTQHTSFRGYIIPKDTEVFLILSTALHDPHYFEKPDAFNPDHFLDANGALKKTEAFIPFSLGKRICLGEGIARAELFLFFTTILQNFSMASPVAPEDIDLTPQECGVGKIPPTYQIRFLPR

In turn, `C[C@@H]1CCO[C@H]2Cn3cc(C(=O)NCc4ccc(F)cc4F)c(=O)c(O)c3C(=O)N12` [DOLUTEGRAVIR] came in with an inhibition at 100 µM at CYP2B6 of 20%. Further, the IC50 (in data set [1]; on Cytochrome P450 1A2) was greater than 100 µM in each case. For the same molecule, the recovery at 3 µM at MDR1 (P-gp, ABCB1) was found to be 84%; at BCRP (ABCG2), 81%. In data set [2], the “inhibition (INH)” value worked out at 29%. Further, the Drug metabolism entry at Cytochrome P450 3A4 was “metabolite_not_detected”; in the data set on Liver microsome it was “metabolite_detected”; in data set [3], “metabolite_not_detected”; in data set [4] it was “metabolite_not_detected”.

As usually defined, the inhibition is how much of the control response was suppressed. By IC50 is commonly meant the concentration at which inhibition is half-maximal. Lower therefore signals greater potency in that assay.
